Data published in patent US20140227303A1, “METHODS FOR DIAGNOSING AND MONITORING DISEASES OR CONDITIONS USING DISEASE MODIFIED BIOMOLECULES AND MEASUREMENT OF A FUNCTIONAL IMMUNE RESPONSE” (VIRACOR-IBT LABORATORIES, priority 2011, published 2014).
Entries after “also recorded” stand apart in the source; their conditions may differ. Like-named read-outs stand apart in the source and are kept apart here. Square brackets hold non-standard residues; d marks the D form. Ends that are not written are not given here. Peptide text beside a SMILES is read from it. Cit = NC(=O)NCCC[C@H](N)C(=O)O

Tests used:
[1] = Peptide solubility in water; format: physicochemical
PBMCs = experiment: Cellular stimulation assay: PBMCs incubated with individual peptides DMB 1011 to DMB 1016, TNFα and IL6 by AlphaLisa; format: cell-based, human; conditions: for Stimulation response of peptides with same sequence but only one or two citrullines (in words): compared with fully citrullinated peptide; for Stimulation of cells to produce TNF and IL-6 (in words): fibrinogen based peptides with 3 citrulline residues
Description: Experiment 2. Cytokine Production after PBMC Stimulation Using Individual Peptides from DMB 1011 to DMB 1016
Experimental setting: Peripheral blood mononuclear cells (PBMCs) were prepared from freshly collected blood using a Ficoll gradient method. The cellular stimulation assay was performed by incubating PBMCs with individual peptides DMB 1011 to DMB 1016. Approximately 300,000 to 500,000 PBMC cells were used for each stimulation assay in a cell culture AIM V serum free medium (Life Technologies) within a 96 well round bottom plate. Concentrations of TNFα and IL6 in culture supernatants were determined after 20 hrs incubation using the AlphaLisa® method.

PBMCs from RA patients = experiment: Cellular stimulation assay: PBMCs incubated with individual peptides DMB 1001-DMB 1010, cytokines in supernatant by AlphaLisa; format: cell-based, human; conditions: peptide 10 μg/ml, 20 hrs incubation
Description: Experiment 1: Cytokine Production after Stimulation of PBMCs from RA Patients with Individual Peptides DMB 1001-DMB 1010
Experimental setting: Peripheral blood mononuclear cells (PBMCs) were prepared from freshly collected blood using a Ficoll gradient method. The cellular stimulation assay was performed by incubation of PBMCs with the individual peptides DMB 1001-DMB 1010 at a concentration of 10 μg/ml. Approximately 300,000 to 500,000 PBMC cells were used for each stimulation assay in a cell culture AIM V serum free medium (Life Technologies) within a 96 well round bottom plate. TNFα, IL6 and IL1b concentrations in culture supernatants were determined using the AlphaLisa® method after 20 hrs of incubation.

Row | Molecule | TNFα concentration in culture supernatant (PBMCs from RA patients; PBMC Sample 1) [pg/mL] | TNFα concentration in culture supernatant (PBMCs from RA patients; PBMC Sample 2) [pg/mL] | further results
1 | CC(C)C[C@H](NC(=O)[C@H](CCCNC(N)=O)NC(=O)[C@@H](NC(=O)[C@H](C)NC(=O)[C@H](CO)NC(=O)[C@H](CO)NC(=O)[C@H](CCCNC(N)=O)NC(=O)[C@@H](NC(=O)[C@H](C)NC(=O)[C@H](Cc1ccc(O)cc1)NC(=O)[C@@H](N)C(C)C)[C@@H](C)O)C(C)C)C(=O)N[C@@H](CCCNC(N)=O)C(=O)N[C@@H](CO)C(=O)N[C@@H](CO)C(=O)N[C@H](C(=O)N1CCC[C@H]1C(=O)O)C(C)C [DMB 1001, VYAT[Cit]SSAV[Cit]L[Cit]SSVP] (H-VYAT[Cit]SSAV[Cit]L[Cit]SSVP-OH; N-terminus and C-terminus assumed) |  |  | Water solubility (in words) [1]: not water soluble
2 | CC(C)C[C@H](NC(=O)[C@H](CCCNC(N)=O)NC(=O)[C@@H](NC(=O)[C@H](C)NC(=O)[C@H](CO)NC(=O)[C@H](CO)NC(=O)[C@H](CCCNC(N)=O)NC(=O)[C@@H](NC(=O)[C@H](C)NC(=O)[C@H](Cc1ccc(O)cc1)NC(=O)[C@@H](NC(=O)CNC(=O)CN)C(C)C)[C@@H](C)O)C(C)C)C(=O)N[C@@H](CCCNC(N)=O)C(=O)N[C@@H](CO)C(=O)N[C@@H](CO)C(=O)N[C@H](C(=O)N1CCC[C@H]1C(=O)O)C(C)C [DMB 1011, GGVYAT[Cit]SSAV[Cit]L[Cit]SSVP] |  |  | Water solubility (in words) [1]: improved the peptide solubility in water; also recorded: water soluble; Water solubility (in words) ([1]; listed as SEQ ID NO: 11): increases the water solubility
3 | GGVYATRSSAV[Cit]LRSSVP [DMB 1014] |  |  | Stimulation response of peptides with same sequence but only one or two citrullines (in words) (PBMCs): greatly diminished; Stimulation of cells to produce TNF and IL-6 (in words) (PBMCs): failed to stimulate cells
4 | GGVYATRSSAV[Cit]L[Cit]SSVP [DMB 1013] |  |  | Stimulation response of peptides with same sequence but only one or two citrullines (in words) (PBMCs): greatly diminished
5 | GGVYAT[Cit]SSAVRL[Cit]SSVP [DMB 1012] |  |  | Stimulation response of peptides with same sequence but only one or two citrullines (in words) (PBMCs): greatly diminished
6 | GGV[Cit]GP[Cit]VVE[CIT]HQSACKD (GGV[Cit]GP[Cit]VVE[Cit]HQSACKD) [DMB 1015] |  |  | Stimulation of cells to produce TNF and IL-6 (in words) (PBMCs): failed to stimulate cells
7 | GPRVVERHQSACKDS [DMB 1008, Fibrinogen alpha chain peptide, not citrullinated] | 7.1 | 7.5 | 
8 | GP[Cit]VVE[Cit]HQSACKDS [DMB 1007] | 4.3 | 4.6 | 
9 | HQCHQESTRGRSRGRCGRSGS [DMB 1006, Filaggrin peptide, not citrullinated] | 2.7 | 7.6 | 
10 | HQCHQEST[Cit]GRSRGRCGRSGS (cysteine pairing not given here) [DMB 1005] | 2.1 | 3.6 | 
11 | KIHAREIFDSRGNPTVE [DMB 1010, Alpha enolase peptide, not citrullinated] | 2.3 | 3.6 | 
12 | KIHA[Cit]EIFDS[Cit]GNPTVE [DMB 1009] | 5.0 | 6.4 | 
13 | NEEGFFSARGHRPLDKK [DMB 1004, Fibrinogen beta chain peptide, not citrullinated] | 2.5 | 6.7 | 
14 | NEEGFFSA[Cit]GHRPLDKK [DMB 1003] | 4.1 | 2.2 | 
15 | VYATRSSAVRLRSSVP [DMB 1002, Vimentin-derived peptide, not citrullinated] | 7.7 | 2.7 | IL1b concentration in cell culture (PBMCs from RA patients; PBMC Sample 1): 1; IL6 concentration in cell culture (PBMCs from RA patients; PBMC Sample 1): 0; IL1b concentration in cell culture (PBMCs from RA patients; PBMC Sample 2): 0; IL6 concentration in cell culture (PBMCs from RA patients; PBMC Sample 2): 0
16 | lipopolysaccharide [LPS, reference compound] | 1708.9 | 508.9 | 
